Experiments:
[1] = molecular target: T1, human muscarinic M2 receptor (Homo sapiens, UniProt P08172); assay: Alphascreen Surefire phospho-ERK1/2 functional assay, M2; conditions: for Emax: CHO, read-out: M2 % Emax cf. ACh, CHO cells stably expressing human M2; for Emax / M2 % Emax cf. ACh: Emax relative to ACh; for EC50: pEC50 M2, CHO cells stably expressing human M2; for EC50 / pEC50 M2: phospho-ERK1/2; for M2 % Emax cf. ACh / pEC50 M2: CHO cells stably expressing human M2
T1 sequence (P08172 1-466): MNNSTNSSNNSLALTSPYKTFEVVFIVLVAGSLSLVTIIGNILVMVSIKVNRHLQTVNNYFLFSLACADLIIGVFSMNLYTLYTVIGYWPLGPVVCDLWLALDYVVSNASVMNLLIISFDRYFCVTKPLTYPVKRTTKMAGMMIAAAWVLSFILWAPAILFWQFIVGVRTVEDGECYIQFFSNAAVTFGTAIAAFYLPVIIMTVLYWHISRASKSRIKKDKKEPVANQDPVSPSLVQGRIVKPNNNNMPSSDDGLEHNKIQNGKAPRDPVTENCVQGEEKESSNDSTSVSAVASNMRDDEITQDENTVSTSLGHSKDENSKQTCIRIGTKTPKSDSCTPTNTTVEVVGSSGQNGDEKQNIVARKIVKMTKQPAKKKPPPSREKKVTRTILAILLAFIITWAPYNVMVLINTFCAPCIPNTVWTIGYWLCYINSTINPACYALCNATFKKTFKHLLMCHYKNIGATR
Method: (§1) CHO cells stably expressing the human muscarinic M1, M2, M3 or M4 receptor were plated (25K/well) onto 96-well tissue culture plates in MEM-alpha+10% dialysed FBS. Once adhered, cells were serum-starved overnight. Agonist stimulation was performed by the addition of 5 μL agonist to the cells for 5 min (37° C.). Media was removed and 50 μL of lysis buffer added. After 15 min, a 4 μL sample was transferred to 384-well plate and 7 μL of detection mixture added. Plates were incubated for 2 h with gentle agitation in the dark and then read on a PHERAstar plate reader.
(§2) pEC50 and Emax figures were calculated from the resulting data for each receptor subtype.

[2] = molecular target: human muscarinic M3 receptor (Homo sapiens, UniProt P20309); assay: Alphascreen Surefire phospho-ERK1/2 functional assay, M3; conditions: for Emax: CHO, read-out: M3 % Emax cf. ACh, CHO cells stably expressing human M3; for Emax / M3 % Emax cf. ACh: Emax relative to ACh; for M3 % Emax cf. ACh / pEC50 M3: CHO cells stably expressing human M3; for pEC50 M3: phospho-ERK1/2
Method: as §1, §2

[3] = molecular target: T2, human muscarinic M4 receptor (Homo sapiens, UniProt P08173); assay: Alphascreen Surefire phospho-ERK1/2 functional assay, M4; type: cell-based; conditions: for EC50 / M4 % Emax cf. ACh: CHO cells stably expressing human M4; for EC50: phospho-ERK1/2, read-out: pEC50 M4 (converted); for Emax: CHO, read-out: M4 % Emax cf. ACh, CHO cells stably expressing human M4; for Emax / M4 % Emax cf. ACh: Emax relative to ACh
T2 construct: expressed in transfected cells
T2 sequence (P08173 1-479): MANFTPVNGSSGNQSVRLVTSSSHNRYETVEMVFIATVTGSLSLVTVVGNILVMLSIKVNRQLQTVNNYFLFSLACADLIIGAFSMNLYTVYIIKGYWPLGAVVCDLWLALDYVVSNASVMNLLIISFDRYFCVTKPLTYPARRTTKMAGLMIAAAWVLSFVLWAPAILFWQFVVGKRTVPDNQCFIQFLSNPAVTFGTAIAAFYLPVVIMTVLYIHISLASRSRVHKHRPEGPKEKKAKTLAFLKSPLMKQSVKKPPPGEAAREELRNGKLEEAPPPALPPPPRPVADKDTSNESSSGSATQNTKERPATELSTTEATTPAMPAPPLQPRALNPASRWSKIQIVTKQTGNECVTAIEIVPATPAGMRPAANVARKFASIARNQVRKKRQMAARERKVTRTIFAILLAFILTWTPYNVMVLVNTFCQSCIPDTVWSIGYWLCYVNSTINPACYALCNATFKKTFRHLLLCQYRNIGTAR
Method: as §1, §2

[4] = molecular target: T3, human muscarinic M1 receptor (Homo sapiens, UniProt P11229); assay: Alphascreen Surefire phospho-ERK1/2 functional assay, M1; type: cell-based; conditions: for EC50 / M1 % Emax cf. ACh: CHO cells stably expressing human M1; for EC50: phospho-ERK1/2, read-out: pEC50 M1 (converted); for Emax: CHO, read-out: M1 % Emax cf. ACh, CHO cells stably expressing human M1; for Emax / M1 % Emax cf. ACh: Emax relative to ACh
T3 construct: expressed in transfected cells
T3 sequence (P11229 1-460): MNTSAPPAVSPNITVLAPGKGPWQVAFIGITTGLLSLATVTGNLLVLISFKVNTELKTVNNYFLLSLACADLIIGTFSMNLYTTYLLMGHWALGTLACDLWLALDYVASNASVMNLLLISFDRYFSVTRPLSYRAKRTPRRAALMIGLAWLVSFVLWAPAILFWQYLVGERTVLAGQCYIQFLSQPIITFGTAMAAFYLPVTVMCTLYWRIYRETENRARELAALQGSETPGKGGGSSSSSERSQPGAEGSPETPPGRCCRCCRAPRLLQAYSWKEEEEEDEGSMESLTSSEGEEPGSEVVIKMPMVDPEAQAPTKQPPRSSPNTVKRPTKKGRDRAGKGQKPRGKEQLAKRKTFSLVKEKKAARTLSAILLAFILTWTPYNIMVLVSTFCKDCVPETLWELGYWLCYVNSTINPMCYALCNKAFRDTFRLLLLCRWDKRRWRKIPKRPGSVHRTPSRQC

Sequence of human muscarinic M3 receptor (P20309 whole entry): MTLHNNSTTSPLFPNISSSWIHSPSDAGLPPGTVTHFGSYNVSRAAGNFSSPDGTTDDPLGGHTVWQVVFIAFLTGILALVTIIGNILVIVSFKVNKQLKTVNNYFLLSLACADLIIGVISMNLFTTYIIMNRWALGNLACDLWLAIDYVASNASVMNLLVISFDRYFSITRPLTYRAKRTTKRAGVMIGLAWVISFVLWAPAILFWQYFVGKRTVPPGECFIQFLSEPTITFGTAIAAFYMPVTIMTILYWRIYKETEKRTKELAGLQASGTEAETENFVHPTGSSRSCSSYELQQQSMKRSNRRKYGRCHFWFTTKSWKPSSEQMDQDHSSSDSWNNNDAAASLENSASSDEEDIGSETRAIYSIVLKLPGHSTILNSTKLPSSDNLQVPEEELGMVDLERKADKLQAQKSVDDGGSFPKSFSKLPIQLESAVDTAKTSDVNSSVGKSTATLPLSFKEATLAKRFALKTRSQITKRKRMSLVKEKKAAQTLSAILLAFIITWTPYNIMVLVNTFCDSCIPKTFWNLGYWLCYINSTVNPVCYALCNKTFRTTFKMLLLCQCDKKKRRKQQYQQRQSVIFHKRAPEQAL

Structure (SMILES) | Emax [1] | EC50 [1] | EC50 [2] | Emax [2] | EC50 [3] | Emax [3] | EC50 [4] | Emax [4] | M2 % Emax cf. ACh [1] | pEC50 M2 [1] | M3 % Emax cf. ACh [2] | pEC50 M3 [2] | M4 % Emax cf. ACh [3] | M1 % Emax cf. ACh [4]
CCOC(=O)N1CCC2(CC(N3CCC4(CC3)OC(=O)NC4C)C2)C1 (single isomer, unassigned) [4-11 Isomer 2] | 7% | > 20 µM | > 20 µM | 7% | 79.4 nM | 102% | 158 nM | 114% | – | – | – | – | – | –
CCOC(=O)N1CCC2(CC(N3CCC4(CC3)CC(=O)NC4Cc3ccccc3)C2)C1 (single isomer, unassigned) [3-8 Isomer 2] | 33% | > 20 µM | > 20 µM | 53% | 79.4 nM | 98% | 12.6 nM | 110% | – | – | – | – | – | –
CCOC(=O)N1CCC2(CC(N3CCC4(CC3)OC(=O)N(CC)C4CC)C2)C1 (single isomer, unassigned) [4-22 Isomer 4] | – | – | – | – | 50.1 nM | – | 200 nM | – | (23) % | <4.7 | (2) % | <4.7 | (113) % | (104) %
COC(=O)N1CCC2(CC(N3CCC4(CC3)CC(=O)NC4Cc3ccccc3)C2)C1 (single isomer, unassigned) [3-7 Isomer 2] | 11% | > 20 µM | > 20 µM | 14% | 79.4 nM | 57% | 25.1 nM | 101% | – | – | – | – | – | –
CCOC(=O)N1CC2(CC(N3CCC4(CC3)OC(=O)N(CC)C4CC)C2)C1 (racemic) [2-2 racemic] | 71% | > 20 µM | > 20 µM | 27% | 200 nM | 69% | 2000 nM | 74% | – | – | – | – | – | –
CCOC(=O)N1CCC2(CC(N3CCC4(CC3)CNC(=O)O4)C2)C1 (single isomer, unassigned) [4-3 Isomer 2] | 0% | > 20 µM | > 20 µM | 7% | 39.8 nM | – | 20 nM | – | – | – | – | – | (78) % | (116) %
CCOC(=O)N1CCC2(CC(N3CCC4(CC3)OC(=O)NC4CC)C2)C1 (single isomer, unassigned) [4-12 Isomer 3] | – | > 6.31 µM | – | – | 6.31 nM | – | 25.1 nM | – | (20) % | – | (8) % | <4.7 | (118) % | (111) %
CCCN1C(=O)OC2(CCN(C3CC4(CCN(C(=O)OCC)C4)C3)CC2)C1CC (single isomer, unassigned) [4-23 Isomer 4] | – | – | – | – | 10 nM | – | 316 nM | – | (8) % | <4.7 | (3) % | <4.7 | (109) % | (96) %

Second part, the molecule after the results:

Emax [1] | EC50 [1] | EC50 [2] | Emax [2] | EC50 [3] | Emax [3] | EC50 [4] | Emax [4] | M2 % Emax cf. ACh [1] | pEC50 M2 [1] | M3 % Emax cf. ACh [2] | pEC50 M3 [2] | M4 % Emax cf. ACh [3] | M1 % Emax cf. ACh [4] | Structure (SMILES)
14% | > 20 µM | > 20 µM | 24% | 501 nM | 95% | 1000 nM | 56% | – | – | – | – | – | – | CCOC(=O)N1CC2(CC(N3CCC4(CC3)OC(=O)N(CC)C4(C)C)C2)C1 [Example 2-4, ethyl 6-(3-ethyl-4,4-dimethyl-2-oxo-1-oxa-3,8-diazaspiro[4.5]dec-8-yl)-2-azaspiro[3.3]heptane-2-carboxylate]
0% | > 20 µM | > 20 µM | 4% | > 20000 nM | 14% | 5.01 nM | 26% | – | – | – | – | – | – | CCOC(=O)N1CC2(CCC(N3CCC4(CC3)CNC(=O)C4)C2)C1 (racemic) [7-1 racemic]
5% | > 20 µM | > 20 µM | 6% | 79.4 nM | 75% | > 20000 nM | 6% | – | – | – | – | – | – | CCOC(=O)N1CCC2(CC(N3CCC4(CC3)OC(=O)N(CC(F)(F)F)C4(C)C)C2)C1 (single isomer, unassigned) [4-43 Isomer 2]
4% | > 20 µM | > 20 µM | 1% | 7.94 nM | 91% | 200 nM | 63% | – | – | – | – | – | – | CCOC(=O)N1CC2(CCC(N3CCC4(CC3)OC(=O)N(CC)C4(C)C)C2)C1 (racemic) [8-4 racemic]
2% | > 20 µM | > 20 µM | 4% | 3.16 nM | 39% | > 20000 nM | 12% | – | – | – | – | – | – | CCOC(=O)N1CC2(CCC(N3CCC4(CC3)OC(=O)NC4(C)C)C2)C1 (single isomer, unassigned) [8-3 Isomer 2]
0% | > 20 µM | > 20 µM | 2% | 2 nM | 70% | 10 nM | 70% | – | – | – | – | – | – | CCOC(=O)N1CC2(CCC(N3CCC4(CC3)OC(=O)NC4CC)C2)C1 (mixture of isomers) [8-1 mixture of diastereomers]
10% | > 20 µM | > 20 µM | 100% | 63.1 nM | 103% | 3160 nM | 55% | – | – | – | – | – | – | CCOC(=O)N1CCC2(CC(N3CCC4(CC3)CC(=O)N(CC)N4CC)C2)C1 (single isomer, unassigned) [6-8 Isomer 2]
3% | > 20 µM | > 20 µM | 4% | 316 nM | – | 158 nM | – | – | – | – | – | 26) % | (71) % | CCOC(=O)N1CCC2(CC(N3CCC4(CC3)CC(=O)NN4Cc3ccccc3)C2)C1 (single isomer, unassigned) [6-6 Isomer 2]
– | > 20 µM | > 20 µM | – | 63.1 nM | 97% | 1000 nM | – | (7) % | – | (3) % | – | – | (72) % | CCOC(=O)N1CCC2(CC(N3CCC4(CC3)OC(=O)N(CC(C)C)C4(C)C)C2)C1 (single isomer, unassigned) [4-38 Isomer 1]
– | – | – | – | 79.4 nM | – | 1260 nM | – | (14) % | <4.7 | (10) % | <4.7 | (97) % | (67) % | CCOC(=O)N1CCC2(CC(N3CCC4(CC3)OC(=O)N3CCCC34)C2)C1 (single isomer, unassigned) [4-44 Isomer 4]
– | – | – | – | 31.6 nM | – | > 20000 nM | – | (3) % | <4.7 | (1) % | <4.7 | (95) % | (25) % | CCOC(=O)N1CCC2(CC(N3CCC4(CC3)OC(=O)N(CC(C)C)C4(C)C)C2)C1 (single isomer, unassigned) [4-38 Isomer 2]
